Measured values: patent publication US9474780B2, “GIP and GLP-1 co-agonist compounds” (Eli Lilly and Company, priority 2015, dated 2016)
Where “and” joins values, the source holds several entries; their conditions need not be identical. Equal entries are not always repeated.

Columns and labels:
Human GCGR = Human GCGR (Homo sapiens, UniProt P47871); assay: Functional hGCGR cAMP assay in HEK-293 clonal cells
[1] = Rat in vivo insulin secretion following intravenous glucose (IVGTT); settings: s.c. 16 hour prior to glucose
Procedure: Male Wistar rats (Harlan Labs, Indianapolis, Ind.) are randomized by body weight and dosed 1.5 ml/kg s.c. 16 hour prior to glucose administration and then fasted. Doses are vehicle, 0.1, 0.3, 1, 3 and 10 nmol/kg. Animals are weighed, and then anesthetized with sodium pentobarbital (Nembutal Sodium solution; Ovation Pharmaceuticals) dosed i.p. (65 mg/kg, 30 mg/ml). A time zero blood sample is collected into EDTA tubes after which glucose is administered ([…], 5 ml/kg). Blood samples are collected at 2, 4, 6, 10, 20, and 30 minutes post glucose. Plasma glucose levels are determined using a Hitachi analyzer (Roche) and plasma insulin is measured by the MSD insulin assay (Meso Scale, Gaithersburg, Md.).

[2] = Weight loss, body composition and hepatic steatosis in DIO mice; format: in vivo, mouse; settings: for Blood Glucose: Day 15
Procedure: The effects on weight loss, body composition and hepatic steatosis in DIO mice for compounds of the present invention are evaluated in C57/BL6 DIO mice. […] Animals are individually housed in a temperature-controlled (24° C.) facility with a 12 hour light/dark cycle (lights on 22:00), and free access to food and water. […] Daily body weight and food intake are measured throughout the study. Absolute changes in body weight are calculated by subtracting the body weight of the same animal prior to the first injection of compound. […] On Day 15, blood glucose is measured with Accu-Chek glucometer (Roche) from tail vein blood and then animals may be sacrificed and livers removed and frozen. Liver triglycerides, determined from homogenates of livers collected at sacrifice, and plasma cholesterol are measured on a Hitachi Modular P clinical analyzer. Statistical comparisons between groups are done using one-way ANOVA followed by Dunnett's multiple comparison test. The ED50 for weight loss lowering is determined in GraphPad Prism using the non-linear fit tool.

human GIP-R = molecular target: T1, human GIP-R (Homo sapiens, UniProt P48546); assay: Functional hGIP-R cAMP assay in HEK-293 clonal cells; settings: HEK293, read-out: Human GIP-R Emax
T1 sequence (P48546 22-466): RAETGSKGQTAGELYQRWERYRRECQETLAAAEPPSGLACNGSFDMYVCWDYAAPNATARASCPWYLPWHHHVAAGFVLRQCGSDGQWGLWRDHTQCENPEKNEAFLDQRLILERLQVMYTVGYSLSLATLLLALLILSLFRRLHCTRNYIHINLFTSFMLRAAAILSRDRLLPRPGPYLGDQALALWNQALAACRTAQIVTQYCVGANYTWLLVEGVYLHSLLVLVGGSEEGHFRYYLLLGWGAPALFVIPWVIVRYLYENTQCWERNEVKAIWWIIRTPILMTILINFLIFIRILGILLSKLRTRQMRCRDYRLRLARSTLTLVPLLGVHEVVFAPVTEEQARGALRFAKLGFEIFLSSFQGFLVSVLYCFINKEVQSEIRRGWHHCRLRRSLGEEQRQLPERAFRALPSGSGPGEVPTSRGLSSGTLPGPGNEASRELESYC
Procedure: After an incubation of 60 minutes at room temperature, the resulting increase in intracellular cAMP is quantitatively determined using the CisBio cAMP Dynamic 2 HTRF Assay Kit (Bedford, Mass.). Briefly, cAMP levels within the cell are detected by adding the cAMP-d2 conjugate in cell lysis buffer (20 μl) followed by the antibody anti-cAMP-Eu^3+-Cryptate, also in cell lysis buffer (20 μl). The resulting competitive assay is incubated for at least 60 minutes at room temperature, then detected using a PerkinElmer Envision® instrument with excitation at 320 nm and emission at 665 nm and 620 nm Envision units (emission at 665 nm/620 nm*10,000) are inversely proportional to the amount of cAMP present and are converted to nM cAMP per well using a cAMP standard curve. […] A relative EC50 value and percent top (Emax) is derived by non-linear regression analysis using the percent maximal response versus the concentration of the compound of the present invention, fitted to a four-parameter logistic equation.

human GLP-1R [3] = molecular target: T2, human GLP-1R (Homo sapiens, UniProt P43220); assay: Functional hGLP-1R cAMP assay in HEK-293 clonal cells; format: cell-based; settings: HEK293; percent of maximal response of hGLP-1(7-36)NH2
T2 construct: expressed in transfected cells; host or cells: 293HEK, Hygromycin-selected; crude plasma membranes
T2 sequence (P43220 24-463): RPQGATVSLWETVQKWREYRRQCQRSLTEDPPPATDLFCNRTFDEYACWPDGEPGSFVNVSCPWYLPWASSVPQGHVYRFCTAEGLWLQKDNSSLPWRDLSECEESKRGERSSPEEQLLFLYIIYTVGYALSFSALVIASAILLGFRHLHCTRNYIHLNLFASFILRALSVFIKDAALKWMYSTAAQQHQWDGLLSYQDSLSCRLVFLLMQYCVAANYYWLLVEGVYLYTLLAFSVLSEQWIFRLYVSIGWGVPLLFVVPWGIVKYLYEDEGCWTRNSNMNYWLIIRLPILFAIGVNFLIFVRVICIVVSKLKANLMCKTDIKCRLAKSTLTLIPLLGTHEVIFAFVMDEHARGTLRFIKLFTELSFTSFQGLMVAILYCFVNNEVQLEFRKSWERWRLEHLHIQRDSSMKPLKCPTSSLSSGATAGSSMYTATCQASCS

human GLP-1R [4] = molecular target: T2, human GLP-1R; format: binding
rat islets = assay: Rat islet insulin secretion; format: cell-based; settings: read-out: Rat islet insulin secretion Mean ED50
Procedure: (§1) To assess action of compounds of the present invention in a system representing physiological GLP-1R and GIP-R expression levels insulin secretion, compounds are tested for effects on insulin secretion from wild-type rodent islets.
(§2) After common bile duct cannulation in male C57B1/6 mice (22-26 g) or male Sprague-Dawley rats (approx. 250 g), the pancreas is distended with Hank's buffer (3 ml for mice or 10 ml for rats, containing 2% BSA and 0.75 mg/ml Clzyme collagenase (VitaCyte). Subsequently, tissues are digested in Hank's buffer at 37° C. for 11-13 minutes (mice) or 14-16 minutes for rat pancreata. Purified islets (Histopaque-1100 gradient [Sigma-Aldrich], […] at 750× gravity) are cultured overnight in RPMI-1640 medium (Invitrogen) containing 10% FBS, 100 U/ml penicillin and 100 μg/ml streptomycin, and preconditioned by starvation in Earle's Balanced Salt Solution (EBSS) supplemented with 0.1% BSA and 2.8 mM glucose. Subsequently, islets are incubated in EBSS (Invitrogen) supplemented with 0.1% BSA, 2.8-11.2 mM glucose and increasing levels of compound (6 batches of 4 islets/condition). GLP-1(7-36)amide (30 nM) is used as a positive control. Insulin is measured over 90 minutes in supernatant using the MSD Insulin Assay (Meso Scale, Gaithersburg, Md.).

[5] = Pharmacokinetics in cynomolgus monkeys; format: in vivo; settings: cynomolgus monkey, plasma, single SC 0.2 mg/kg, male monkeys, n = 2
Procedure, shortened: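 Single 0.2 mg/kg dose, intravenous or subcutaneous, in 20 mM citrate buffer pH 7.0; blood sampled from 2 to 312 hours post-dose. Plasma extracted with N-butanol, reconstituted in 30% acetonitrile/0.1% formic acid and quantified by LC/MS on a C5 column with Q-Exactive detection.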

mouse islets = assay: Mouse islet insulin secretion; format: cell-based; settings: read-out: Mouse islet insulin secretion Mean ED50
Procedure: as §1, §2

GIP receptor = molecular target: T3, GIP receptor (Mus musculus, UniProt Q0P543); assay: Intracellular cAMP in GLUTag incretin-secreting cells; format: cell-based, murine; settings: 0.001-3 μM
T3 construct: endogenous in cells; host or cells: GLUTag cells (murine enteroendocrine line)
T3 sequence (Q0P543 19-460): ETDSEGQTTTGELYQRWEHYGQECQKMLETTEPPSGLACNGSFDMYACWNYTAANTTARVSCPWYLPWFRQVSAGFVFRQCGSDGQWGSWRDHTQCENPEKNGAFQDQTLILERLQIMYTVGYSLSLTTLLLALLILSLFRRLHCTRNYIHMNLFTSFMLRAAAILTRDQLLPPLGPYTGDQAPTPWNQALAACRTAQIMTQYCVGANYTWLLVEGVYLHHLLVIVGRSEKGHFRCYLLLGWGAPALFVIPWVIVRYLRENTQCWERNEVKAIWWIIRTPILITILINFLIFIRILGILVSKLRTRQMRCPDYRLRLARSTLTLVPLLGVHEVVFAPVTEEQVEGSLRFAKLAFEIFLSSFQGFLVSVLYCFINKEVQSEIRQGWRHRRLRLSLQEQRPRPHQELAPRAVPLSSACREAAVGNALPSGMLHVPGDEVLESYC
Procedure: On the day of the assay, media is decanted from cells and 50 μl EBSS Buffer (0.1% BSA, 2 mM glucose and 0.25 mM IBMX) containing a range of compound concentrations (0.001-3 μM) is added to cells. The plate is incubated at 37° C. for one hour and cAMP levels determined using Cisbio Dynamic 2 cAMP HTRF kit (Bedford, Mass.). 25 μl of anti-cAMP cryptate and 25 μl cAMP d2 is added to each well and plates incubated for one hour at room temperature. […] Data is analyzed with GraphPad using a 4-parameter non-linear logistic algorithm

Human GCGR, sequence (P47871 26-477): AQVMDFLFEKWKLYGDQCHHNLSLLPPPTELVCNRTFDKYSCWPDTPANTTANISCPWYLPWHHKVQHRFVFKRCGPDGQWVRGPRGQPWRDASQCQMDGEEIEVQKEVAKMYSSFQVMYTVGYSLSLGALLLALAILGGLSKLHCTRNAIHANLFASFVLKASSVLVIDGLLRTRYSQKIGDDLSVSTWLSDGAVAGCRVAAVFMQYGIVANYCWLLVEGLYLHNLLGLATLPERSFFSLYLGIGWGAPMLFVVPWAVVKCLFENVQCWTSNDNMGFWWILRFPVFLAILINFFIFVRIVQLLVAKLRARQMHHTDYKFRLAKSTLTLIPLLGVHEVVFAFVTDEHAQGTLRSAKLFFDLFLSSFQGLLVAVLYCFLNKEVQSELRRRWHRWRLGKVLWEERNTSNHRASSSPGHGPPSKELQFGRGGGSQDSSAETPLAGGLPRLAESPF

Compound: CC[C@H](C)[C@H](NC(=O)[C@H](CC(C)C)NC(=O)[C@H](Cc1c[nH]c2ccccc12)NC(=O)[C@H](CCC(N)=O)NC(=O)[C@@H](NC(=O)[C@H](Cc1ccccc1)NC(=O)[C@H](C)NC(=O)[C@H](CCCCNC(=O)COCCOCCNC(=O)COCCOCCNC(=O)CC[C@H](NC(=O)CCCCCCCCCCCCCCCCC(=O)O)C(=O)O)NC(=O)[C@H](CCC(N)=O)NC(=O)[C@H](C)NC(=O)[C@@H](NC(=O)[C@H](CCCCN)NC(=O)[C@H](CC(=O)O)NC(=O)[C@H](CC(C)C)NC(=O)C(C)(C)NC(=O)[C@@H](NC(=O)[C@H](CO)NC(=O)[C@H](Cc1ccc(O)cc1)NC(=O)[C@H](CC(=O)O)NC(=O)[C@H](CO)NC(=O)[C@@H](NC(=O)[C@H](Cc1ccccc1)NC(=O)[C@@H](NC(=O)CNC(=O)[C@H](CCC(=O)O)NC(=O)C(C)(C)NC(=O)[C@@H](N)Cc1ccc(O)cc1)[C@@H](C)O)[C@@H](C)O)[C@@H](C)CC)[C@@H](C)CC)C(C)C)C(=O)N[C@@H](C)C(=O)NCC(=O)NCC(=O)N1CCC[C@H]1C(=O)N[C@@H](CO)C(=O)N[C@@H](CO)C(=O)NCC(=O)N[C@@H](C)C(=O)N1CCC[C@H]1C(=O)N1CCC[C@H]1C(=O)N1CCC[C@H]1C(=O)N[C@@H](CO)C(N)=O [Example 3]
- EC50 (Human GCGR): > 1 µM
- % max increase of insulin AUC [1]: 314 +/− 38% and 219 +/− 19%
- ED50 for insulin, rat IVGTT [1]: 1.00 nmol/kg and 1.42 nmol/kg
- % Change from starting body weight ([2]; Table 8, 10 nmol/kg): −13.38 ± 0.88 %
- % Change from starting fat mass ([2]; Table 8, 10 nmol/kg): −20.76 ± 2.42 %
- % Change from starting body weight ([2]; Table 8, 30 nmol/kg): −18.13 ± 1.44 %
- % Change from starting fat mass ([2]; Table 8, 30 nmol/kg): −30.90 ± 2.06 %
- % Change from starting body weight ([2]; Table 8, 100 nmol/kg): −25.84 ± 1.93 %
- % Change from starting fat mass ([2]; Table 8, 100 nmol/kg): −45.92 ± 2.15 %
- Plasma Cholesterol ([2]; Table 11, 10 nmol/kg): 213.2 ± 15.54 mg/dL
- Plasma Triglycerides ([2]; Table 11, 10 nmol/kg): 30.38 ± 8.23 mg/dL
- Blood Glucose ([2]; Table 11, 10 nmol/kg): 109.5 ± 2.35 mg/dL
- Plasma Cholesterol ([2]; Table 11, 30 nmol/kg): 177.4 ± 16.58 mg/dL
- Plasma Triglycerides ([2]; Table 11, 30 nmol/kg): 21.32 ± 2.48 mg/dL
- Blood Glucose ([2]; Table 11, 30 nmol/kg): 107.6 ± 1.32 mg/dL
- Plasma Cholesterol ([2]; Table 11, 100 nmol/kg): 194.00 ± 14.40 mg/dL
- Plasma Triglycerides ([2]; Table 11, 100 nmol/kg): 20.55 ± 4.60 mg/dL
- Blood Glucose ([2]; Table 11, 100 nmol/kg): 102.00 ± 0.50 mg/dL
- Emax (human GIP-R): 106 ± 3%
- Emax (human GLP-1R [3]): 96.2 ± 6.2%
- Molar ratio of hGLP-1R/hGIP-R (human GLP-1R [4]; normalized by factor 4.53 from native GIP and GLP-1 binding): 3.53
- Absolute ratio of hGLP-1R/hGIP-R (human GLP-1R [4]; ratio of Ki values): 16
- EC50 (rat islets): 0.0349 µM
- CL/F [5]: 1.3 mL/h/kg
- Cmax [5]: 3 µg/mL
- AUC(0-inf) ([5]; read-out: Mean AUC0-inf): 153 µg·h/mL
- half-life ([5]; read-out: Mean T1/2 (converted)): 34 h
- Tmax ([5]; read-out: Mean Tmax): 8 h
- EC50 (mouse islets): 0.0589 µM

Compound: CC[C@H](C)[C@H](NC(=O)[C@H](Cc1ccccc1)NC(=O)[C@H](CCC(=O)O)NC(=O)[C@H](CCCCN)NC(=O)[C@H](C)NC(=O)[C@H](C)NC(=O)[C@H](CCC(N)=O)NC(=O)CNC(=O)[C@H](CCC(=O)O)NC(=O)[C@H](CC(C)C)NC(=O)[C@H](Cc1ccc(O)cc1)NC(=O)[C@H](CO)NC(=O)[C@H](CO)NC(=O)[C@@H](NC(=O)[C@H](CC(=O)O)NC(=O)[C@H](CO)NC(=O)[C@@H](NC(=O)[C@H](Cc1ccccc1)NC(=O)[C@@H](NC(=O)CNC(=O)[C@H](CCC(=O)O)NC(=O)[C@H](C)NC(=O)[C@@H](N)Cc1c[nH]cn1)[C@@H](C)O)[C@@H](C)O)C(C)C)C(=O)N[C@@H](C)C(=O)N[C@@H](Cc1c[nH]c2ccccc12)C(=O)N[C@@H](CC(C)C)C(=O)N[C@H](C(=O)N[C@@H](CCCCN)C(=O)NCC(=O)N[C@@H](CCCNC(=N)N)C(N)=O)C(C)C [GLP-1,7-36-NH2]
- cAMP accumulation in GLUTag cells (GIP receptor): fails to induce any changes in cAMP at all concentrations tested
